Source: ChEMBL document CHEMBL3414508, “A few atoms make the difference: synthetic, CD, NMR and computational studies on antiviral and antibacterial activities of glycopeptide antibiotic aglycon derivatives” (Eur J Med Chem, 2015)
≈ marks a conversion by molar mass, not a printed value.

How the values were obtained:
Assay type in all cases: functional
Bacillus spizizenii = test: Antibacterial activity against Bacillus subtilis ATCC 6633 by broth microdilution method
Staphylococcus aureus [1] = test: Antibacterial activity against methicillin-sensitive Staphylococcus aureus ATCC 29213 by broth microdilution method
Staphylococcus aureus [2] = test: Antibacterial activity against methicillin-resistant Staphylococcus aureus ATCC 33591 by broth microdilution method
[3] = tested on: Staphylococcus epidermidis; test: Antibacterial activity against Staphylococcus epidermidis expressing mecA by broth microdilution method
[4] = tested on: Staphylococcus epidermidis; test: Antibacterial activity against biofilm producing Staphylococcus epidermidis ATCC 35984 by broth microdilution method
Enterococcus faecalis [5] = test: Antibacterial activity against Enterococcus faecalis ATCC 29212 by broth microdilution method
Enterococcus faecalis [6] = test: Antibacterial activity against VanA+ Enterococcus faecalis 15376 by broth microdilution method
Enterococcus faecalis [7] = test: Antibacterial activity against VanB+ Enterococcus faecalis ATCC 51299 by broth microdilution method

SMILES	MIC (Bacillus spizizenii)	MIC (Staphylococcus aureus [1])	MIC (Staphylococcus aureus [2])	MIC [3]	MIC [4]	MIC (Enterococcus faecalis [5])	MIC (Enterococcus faecalis [6])	MIC (Enterococcus faecalis [7])
COC(=O)[C@H]1NC(=O)[C@H]2NC(=O)[C@H](NC(=O)[C@@H]3NC(=O)[C@H]4NC(=O)[C@@H](Cc5ccc(cc5)Oc5cc3cc(c5O)Oc3ccc(cc3)[C@H]2O)NC(=O)[C@H](Nc2c(NCc3ccc(-c5ccccc5)cc3)c(=O)c2=O)c2ccc(O)c(c2)Oc2cc(O)cc4c2)c2ccc(O)c(c2)-c2c(O)cc(O)cc21	16 µg/mL (≈ 11.4 µM)	8 µg/mL (≈ 5.69 µM)	32 µg/mL (≈ 22.8 µM)	8 µg/mL (≈ 5.69 µM)	32 µg/mL (≈ 22.8 µM)	4 µg/mL (≈ 2.85 µM)	16 µg/mL (≈ 11.4 µM)	4 µg/mL (≈ 2.85 µM)
COC(=O)[C@H]1NC(=O)[C@H]2NC(=O)[C@H](NC(=O)[C@@H]3NC(=O)[C@H]4NC(=O)[C@@H](Cc5ccc(c(Cl)c5)Oc5cc3cc(c5O)Oc3ccc(cc3Cl)[C@H]2O[C@@H]2O[C@H](CO)[C@@H](O)[C@H](O)[C@H]2NC(C)=O)NC(=O)[C@H](Nc2c(OC)c(=O)c2=O)c2ccc(O)c(c2)Oc2cc(O)cc4c2)c2ccc(O)c(c2)-c2c(O)cc(O)cc21	8 µg/mL (≈ 5.24 µM)	2 µg/mL (≈ 1.31 µM)	8 µg/mL (≈ 5.24 µM)	8 µg/mL (≈ 5.24 µM)	4 µg/mL (≈ 2.62 µM)	2 µg/mL (≈ 1.31 µM)	0.5 µg/mL (≈ 0.328 µM)	4 µg/mL (≈ 2.62 µM)
